For experiment [1], the target named is T1, IDO (Homo sapiens, UniProt P14902). Nature of the experiment: LLE_IDO_ABS_DR (IDO assay).
A further experiment concerns the target T2, Human IDO1 (Homo sapiens, UniProt P14902).
T2 construct: expressed in transfected cells; host or cells: HEK293
Description: IDO Kynurenine Assay with Human IDO1/HEK293 Cells. Type of experiment: cell-based. The note with it: read-out: HEK human IDO-1 (IC50). The procedure, abridged:
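HEK293 cells stably expressing human IDO1, in phenol red-free RPMI/10% FBS, exposed to compound for 20 h at 37 °C. Stopped with 0.2% TCA (50 °C, 30 min); kynurenine in supernatant detected with Ehrlich reagent, absorbance 490 nm.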

The target of experiment [2] is T1, IDO. Nature of the experiment: Kynurenine assay in Hela cells stimulated with IFN-γ to express IDO. The conditions noted are these: 20 h, read-out: Hela Kyurenine (IC50). The arrangement: endogenous in cells; host or cells: HeLa (ATCC CCL-2), stimulated with human recombinant IFN-gamma. Type of experiment: cell-based. As to the method: IFNg (R&D, 28-IF-100)—resuspend at 10 ug/mL in PBS with 0.1% BSA 30% TCA
Ehrlich reagent (2% w/v p-dimethylaminobenzaldehyde in glacial acetic acid)
Cell Titer 96 Aqueous Non-Radioactive Cell Proliferation Assay, MTS (Promega, Cat # G5430)
Cell Lines and Culture Conditions
Hela cancer cell lines were acquired from the American Type Culture Collection. Cells were maintained in phenol red free-RPMI1640 medium containing high glucose and L-glutamine (Invitrogen) supplemented with 10% fetal bovine serum (FBS; Invitrogen). Cell cultures were incubated at 37° C., 5% CO2, and 100% humidity.
Cell Treatment and Kynurenine Assay
Hela cells were seeded on 96-well plates (40,000 cells per well) and allowed to adhere for 5-6 hours. Cells were then treated with vehicle (DMSO) or with IDO inhibitor at a top dose of 30 μM (3-fold dilution all the way down to 1.5 nM). A final concentration of 100 ng/mL of human recombinant IFN-γ (R&D, 28-IF-100) was immediately added to the cells to stimulate IDO expression. Treated cells were then incubated for 20 hours at 37° C. At the end of the 20 h incubation, reactions were terminated by the addition of 30% TCA to each well. Plates were incubated for 30 minutes at 50° C. to hydrolyze N-formylkynurenine to kynurenine. Cells were centrifuged 10 minutes at 2400 rpm. 100 ul of supernatants were transferred to new 96 flat well plates and mixed with 100 ul Ehrlich reagent. The resulting solution was incubated 10 minutes at RT. Absorbance at 490 nm was read using Spectra Max 384 (Molecular Devices).

For orientation: IC50 means the concentration that gives 50% inhibition.

T1 sequence (P14902 whole entry): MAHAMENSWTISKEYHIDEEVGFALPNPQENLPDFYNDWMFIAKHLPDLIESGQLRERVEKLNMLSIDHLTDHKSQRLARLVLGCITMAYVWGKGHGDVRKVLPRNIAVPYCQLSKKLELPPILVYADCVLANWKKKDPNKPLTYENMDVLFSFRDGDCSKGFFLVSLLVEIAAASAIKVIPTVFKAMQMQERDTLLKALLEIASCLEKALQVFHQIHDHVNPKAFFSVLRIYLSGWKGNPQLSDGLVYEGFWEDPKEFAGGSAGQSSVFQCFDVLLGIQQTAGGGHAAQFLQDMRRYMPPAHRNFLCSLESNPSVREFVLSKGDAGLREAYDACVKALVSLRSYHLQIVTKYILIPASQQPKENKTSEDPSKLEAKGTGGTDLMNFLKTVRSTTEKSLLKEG
T2 sequence (P14902 whole entry): as above

Take `Cc1ccc(NC(=O)Nc2cc(-c3ccccc3-c3nnn[nH]3)ccc2N(CC(C)C)CC(C)C)cc1` [Example 1, 1-(4-(Diisobutylamino)-2′-(1H-tetrazol-5-yl)biphenyl-3-yl)-3-p-tolylurea]: the values for the IC50 on IDO [1], on Human IDO1 and at IDO [2] were 3.45 nM, 3.31 nM and 1.37 nM, respectively.
Regarding `Cc1ccc(NC(=O)Nc2cc(-c3ccccc3-c3nnn[nH]3)c(F)cc2N(C)C2CCCCC2)cc1` [Example 222, 1-(4-(cyclohexyl(methyl)ami-no)-6-fluoro-2′-(1H-tetrazol-5-yl)biphenyl-3-yl)-3-p-tolylurea], the IC50 against IDO [1] is 10 nM; on IDO [2] it was 2.63 nM.
Consider `Cc1ccc(NC(=O)Nc2cc(-c3ccccc3-c3nnn[nH]3)c(F)cc2N(CC(F)F)CC2CC2)cc1` [Example 223, 1-(4-((cyclopropylmethyl)(2,2-difluoroethyl)amino)-6-fluoro-2′-(1H-tetrazol-5-yl)biphenyl-3-yl)-3-p-tolylurea], for which the results for the IC50 at IDO [1] and on IDO [2] were 420 nM and 160 nM, respectively.

The record behind these values is patent US9758492B2, “IDO inhibitors” (Bristol-Myers Squibb Company, priority 2013, dated 2017).
